Test results reported in patent publication US20260070903A1, “NOVEL PYRIDO[3,4-D]PYRIMIDIN-8-ONE DERIVATIVE HAVING PROTEIN KINASE INHIBITORY ACTIVITY, AND PHARMACEUTICAL COMPOSITION FOR PREVENTING, ALLEVIATING, OR TREATING CANCER, COMPRISING SAME” (KOREA INSTITUTE OF SCIENCE AND TECHNOLOGY, priority 2019, published 2026).

Key:
[1] = test system: Ba/F3 (N-Ras G12D); assay: Proliferation inhibitory activity, Ba/F3 N-Ras G12D; assay type: cell-based
Method: (§1) The inhibitory activities of the compounds of the present disclosure against the proliferation of the mt-NRAS (G12D) Ba/F3 and OCI-AML3 (mt-NRAS) cell lines were measured and the GI50 values thereof were calculated.

[2] = test system: OCI-AML3 (N-Ras Q61L); assay: Proliferation inhibitory activity, OCI-AML3; assay type: cell-based, human
Method: as §1

[3] = biological target: ACK1 (Homo sapiens, UniProt Q07912); assay: Inhibitory activity against ACK1 kinase (IC50); assay type: biochemical
Method: (§2) The inhibitory activities of the compounds of the present disclosure against two kinases, GCK and ACK1, were measured, and the IC50 values thereof were calculated.

[4] = biological target: T1, GCK (Homo sapiens, UniProt Q12851); assay: Inhibitory activity against GCK kinase (IC50); assay type: biochemical
T1 sequence (Q12851 1-820): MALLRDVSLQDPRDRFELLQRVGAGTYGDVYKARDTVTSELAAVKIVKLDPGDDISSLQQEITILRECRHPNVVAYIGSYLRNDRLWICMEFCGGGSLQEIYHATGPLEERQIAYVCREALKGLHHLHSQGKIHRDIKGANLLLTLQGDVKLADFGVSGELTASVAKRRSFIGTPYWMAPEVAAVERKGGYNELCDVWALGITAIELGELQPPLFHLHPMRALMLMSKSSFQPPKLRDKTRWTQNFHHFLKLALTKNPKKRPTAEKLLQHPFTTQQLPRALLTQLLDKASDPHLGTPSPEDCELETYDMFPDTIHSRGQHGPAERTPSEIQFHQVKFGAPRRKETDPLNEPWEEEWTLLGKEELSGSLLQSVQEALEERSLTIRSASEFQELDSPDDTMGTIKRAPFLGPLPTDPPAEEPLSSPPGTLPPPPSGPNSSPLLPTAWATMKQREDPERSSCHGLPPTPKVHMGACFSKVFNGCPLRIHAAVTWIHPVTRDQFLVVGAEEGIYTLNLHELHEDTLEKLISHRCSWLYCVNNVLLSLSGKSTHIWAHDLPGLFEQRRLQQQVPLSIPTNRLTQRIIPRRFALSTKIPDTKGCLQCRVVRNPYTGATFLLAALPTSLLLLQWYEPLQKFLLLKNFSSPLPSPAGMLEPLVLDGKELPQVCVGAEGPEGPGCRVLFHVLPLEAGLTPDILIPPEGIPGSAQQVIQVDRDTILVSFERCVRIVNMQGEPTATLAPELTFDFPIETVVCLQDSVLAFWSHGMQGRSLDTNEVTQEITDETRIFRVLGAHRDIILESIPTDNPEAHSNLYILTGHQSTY
Method: as §2

Sequence of ACK1 (Q07912 whole entry): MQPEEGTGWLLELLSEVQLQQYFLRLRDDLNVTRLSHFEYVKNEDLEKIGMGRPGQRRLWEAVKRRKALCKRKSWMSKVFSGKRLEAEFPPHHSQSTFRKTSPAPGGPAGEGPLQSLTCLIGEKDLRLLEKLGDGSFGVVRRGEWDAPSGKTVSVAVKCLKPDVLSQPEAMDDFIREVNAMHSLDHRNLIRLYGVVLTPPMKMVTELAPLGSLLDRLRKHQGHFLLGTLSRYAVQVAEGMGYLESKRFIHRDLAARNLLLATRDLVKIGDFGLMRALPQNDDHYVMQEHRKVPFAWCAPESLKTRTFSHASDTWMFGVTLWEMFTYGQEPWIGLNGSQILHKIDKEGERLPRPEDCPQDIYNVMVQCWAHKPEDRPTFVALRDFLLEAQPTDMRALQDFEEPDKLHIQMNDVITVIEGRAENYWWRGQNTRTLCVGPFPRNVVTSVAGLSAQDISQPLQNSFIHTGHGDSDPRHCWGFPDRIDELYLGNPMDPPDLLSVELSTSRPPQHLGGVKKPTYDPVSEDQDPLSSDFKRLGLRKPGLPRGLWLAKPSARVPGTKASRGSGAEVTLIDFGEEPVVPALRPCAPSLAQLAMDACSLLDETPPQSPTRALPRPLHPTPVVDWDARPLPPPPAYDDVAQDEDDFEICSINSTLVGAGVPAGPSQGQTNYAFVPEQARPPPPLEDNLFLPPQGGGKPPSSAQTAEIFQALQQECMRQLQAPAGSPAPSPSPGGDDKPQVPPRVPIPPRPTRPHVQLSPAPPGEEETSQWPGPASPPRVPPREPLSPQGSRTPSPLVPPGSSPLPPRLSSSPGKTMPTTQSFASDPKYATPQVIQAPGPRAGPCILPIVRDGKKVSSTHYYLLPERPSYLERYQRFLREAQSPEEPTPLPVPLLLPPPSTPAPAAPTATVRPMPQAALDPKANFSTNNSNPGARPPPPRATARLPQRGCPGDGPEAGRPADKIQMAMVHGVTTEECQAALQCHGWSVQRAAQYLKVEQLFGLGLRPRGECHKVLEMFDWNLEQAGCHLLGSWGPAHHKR

Compound	GI50 ([1]; Mus musculus, BaF3) [µM]	GI50 ([2]; Homo sapiens, OCI-AML-3) [µM]	IC50 [3] [nM]	IC50 [4] [nM]	GI50 ([1]; Ba/F3 (N-Ras G12D)) [µM]	GI50 ([2]; OCI-AML3 (N-Ras Q61L)) [µM]
Cc1ccc(NC(=O)c2cccc(C(F)(F)F)c2)cc1-c1cc2cnc(NCCN3CCOCC3)nc2c(=O)n1C [Compound No. 6, N-(4-methyl-3-(7-methyl-2-((2-morpholinoethyl)amino)-8-oxo-7,8-dihydropyrido[3,4-d]pyrimidin-6-yl)phenyl)-3-(trifluoromethyl)benzamide]	0.5 to 3	0.5 to 3	–	–	–	–
Cc1ccc(Nc2ncc3cc(-c4cc(NC(=O)c5cccc(C(F)(F)F)c5)ccc4C)[nH]c(=O)c3n2)cn1 [Compound No. 54, N-(4-methyl-3-(2-((6-methylpyridin-3-yl)amino)-8-oxo-7,8-dihydropyrido[3,4-d]pyrimidin-6-yl)phenyl)-3-(trifluoromethyl)benzamide]	0.5 to 3	< 0.5	–	–	–	–
Cc1ccc(NC(=O)c2cccc(C(F)(F)F)c2)cc1-c1cc2cnc(NC3CC3)nc2c(=O)[nH]1 [Compound No. 53, N-(3-(2-(cyclopropylamino)-8-oxo-7,8-dihydropyrido[3,4-d]pyrimidin-6-yl)-4-methylphenyl)-3-(trifluoromethyl)benzamide]	< 0.5	< 0.5	< 100	100 to 1000	–	–
COc1cc(N2CCOCC2)ccc1Nc1ncc2cc(-c3cc(NC(=O)c4cccc(C(F)(F)F)c4)ccc3C)n(C)c(=O)c2n1 [Compound No. 22, N-(3-(2-((2-methoxy-4-morpholinophenyl)amino)-7-methyl-8-oxo-7,8-dihydropyrido[3,4-d]pyrimidin-6-yl)-4-methylphenyl)-3-(trifluoromethyl)benzamide]	> 5	> 5	–	–	–	–
COc1ccc(CNc2ncc3cc(-c4cc(NC(=O)c5cccc(C(F)(F)F)c5)ccc4C)n(C)c(=O)c3n2)cc1 [Compound No. 10, N-(3-(2-((4-methoxybenzyl)amino)-7-methyl-8-oxo-7,8-dihydropyrido[3,4-d]pyrimidin-6-yl)-4-methylphenyl)-3-(trifluoromethyl)benzamide]	> 5	> 5	–	–	–	–
Cc1ccc(NC(=O)c2cccc(C(F)(F)F)c2)cc1-c1cc2cnc(NCCO)nc2c(=O)n1C [Compound No. 2, N-(3-(2-((2-hydroxyethyl)amino)-7-methyl-8-oxo-7,8-dihydropyrido[3,4-d]pyrimidin-6-yl)-4-methylphenyl)-3-(trifluoromethyl)benzamide]	0.5 to 3	0.5 to 3	–	–	–	–
CCN1CCN(c2ccc(Nc3ncc4cc(-c5cc(NC(=O)c6cccc(C(F)(F)F)c6)ccc5C)n(C)c(=O)c4n3)cc2)CC1 [Compound No. 17, N-(3-(2-((4-(4-ethylpiperazin-1-yl)phenyl)amino)-7-methyl-8-oxo-7,8-dihydropyrido[3,4-d]pyrimidin-6-yl)-4-methylphenyl)-3-(trifluoromethyl)benzamide]	0.5 to 3	< 0.5	–	–	–	–
Cc1ccc(Nc2ncc3cc(-c4cc(NC(=O)c5cccc(C(F)(F)F)c5)ccc4C)n(C)c(=O)c3n2)cn1 [Compound No. 13, N-(4-methyl-3-(7-methyl-2-((6-methylpyridin-3-yl)amino)-8-oxo-7,8-dihydropyrido[3,4-d]pyrimidin-6-yl)phenyl)-3-(trifluoromethyl)benzamide]	< 0.5	< 0.5	< 100	100 to 1000	–	–
Cc1ccc(NC(=O)c2cccc(C(F)(F)F)c2)cc1-c1cc2cnc(NC3CC3)nc2c(=O)n1C [Compound No. 1, N-(3-(2-(cyclopropylamino)-7-methyl-8-oxo-7,8-dihydropyrido[3,4-d]pyrimidin-6-yl)-4-methylphenyl)-3-(trifluoromethyl)benzamide]	0.5 to 3	0.5 to 3	–	–	–	–
Cc1ccc(NC(=O)c2cccc(C(F)(F)F)c2)cc1-c1cc2cnc(N3CCOCC3)nc2c(=O)n1C [Compound No. 12, N-(4-methyl-3-(7-methyl-2-morpholino-8-oxo-7,8-dihydropyrido[3,4-d]pyrimidin-6-yl)phenyl)-3-(trifluoromethyl)benzamide]	> 5	0.5 to 3	–	–	–	–
Cc1ccc(NC(=O)c2cccc(C(F)(F)F)c2)cc1-c1cc2cnc(NCCSCc3ccco3)nc2c(=O)n1C [Compound No. 11, N-(3-(2-((2-((furan-2-ylmethyl)thio)ethyl)amino)-7-methyl-8-oxo-7,8-dihydiropyrido[3,4-d]pyrimidin-6-yl)-4-methylphenyl)-3-(trifluoromethyl)benzamide]	–	–	–	–	> 5	3 to 5
Cc1ccc(NC(=O)c2cccc(C(F)(F)F)c2)cc1-c1cc2cnc(Nc3ccc(N4CCC(O)CC4)cc3)nc2c(=O)n1C [Compound No. 19, N-(3-(2-((4-(4-hydroxypiperidin-1-yl)phenyl)amino)-7-methyl-8-oxo-7,8-dihydropyrido[3,4-d]pyrimidin-6-yl)-4-methylphenyl)-3-(trifluoromethyl)benzamide]	0.5 to 3	0.5 to 3	–	–	–	–
Cc1ccc(NC(=O)c2cccc(C(F)(F)F)c2)cc1-c1cc2cnc(Nc3ccc(C(=O)N(C)C)cc3)nc2c(=O)n1C [Compound No. 15]	0.5 to 3	0.5 to 3	–	–	–	–
